Structures can show the parent of a compound that is named as a salt.
molecular target: human full length recombinant Mps-1 kinase (Homo sapiens (Human), UniProt P33981); experiment: Mps-1 Kinase Assay (TR-FRET); type: biochemical; conditions: 10 μM ATP, 1 μM biotinylated peptide substrate, 60 min at 22° C., read-out: Mps-1 Inhibition, IC50 in M
Procedure: The human kinase Mps-1 phosphorylates a biotinylated substrate peptide. Detection of the phosphorylated product is achieved by time-resolved fluorescence resonance energy transfer (TR-FRET) from Europium-labelled anti-phospho-Serine/Threonine antibody as donor to streptavidin labelled with cross-linked allophycocyanin (SA-XLent) as acceptor. Compounds are tested for their inhibition of the kinase activity.
N-terminally GST-tagged human full length recombinant Mps-1 kinase (purchased from Invitrogen, Karslruhe, Germany, cat. no PV4071) was used. As substrate for the kinase reaction a biotinylated peptide of the amino-acid sequence […] (C-terminus in amide form, purchased from Biosynthan GmbH, Berlin) was used.
The concentration of Mps-1 in the assay was adjusted to the activity of the enzyme lot and was chosen appropriate to have the assay in the linear range, typical enzyme concentrations were in the range of about 1 nM (final conc. in the 5 μl assay volume).
The resulting mixture was incubated 1 h at 22° C. to allow the binding of the phosphorylated peptide to the anti-phospho(Ser/Thr)-Europium-antibody. Subsequently the amount of phosphorylated substrate was evaluated by measurement of the resonance energy transfer from the Europium-labelled anti-phospho(Ser/Thr) antibody to the Streptavidin-XLent.

human full length recombinant Mps-1 kinase, sequence (P33981 whole entry): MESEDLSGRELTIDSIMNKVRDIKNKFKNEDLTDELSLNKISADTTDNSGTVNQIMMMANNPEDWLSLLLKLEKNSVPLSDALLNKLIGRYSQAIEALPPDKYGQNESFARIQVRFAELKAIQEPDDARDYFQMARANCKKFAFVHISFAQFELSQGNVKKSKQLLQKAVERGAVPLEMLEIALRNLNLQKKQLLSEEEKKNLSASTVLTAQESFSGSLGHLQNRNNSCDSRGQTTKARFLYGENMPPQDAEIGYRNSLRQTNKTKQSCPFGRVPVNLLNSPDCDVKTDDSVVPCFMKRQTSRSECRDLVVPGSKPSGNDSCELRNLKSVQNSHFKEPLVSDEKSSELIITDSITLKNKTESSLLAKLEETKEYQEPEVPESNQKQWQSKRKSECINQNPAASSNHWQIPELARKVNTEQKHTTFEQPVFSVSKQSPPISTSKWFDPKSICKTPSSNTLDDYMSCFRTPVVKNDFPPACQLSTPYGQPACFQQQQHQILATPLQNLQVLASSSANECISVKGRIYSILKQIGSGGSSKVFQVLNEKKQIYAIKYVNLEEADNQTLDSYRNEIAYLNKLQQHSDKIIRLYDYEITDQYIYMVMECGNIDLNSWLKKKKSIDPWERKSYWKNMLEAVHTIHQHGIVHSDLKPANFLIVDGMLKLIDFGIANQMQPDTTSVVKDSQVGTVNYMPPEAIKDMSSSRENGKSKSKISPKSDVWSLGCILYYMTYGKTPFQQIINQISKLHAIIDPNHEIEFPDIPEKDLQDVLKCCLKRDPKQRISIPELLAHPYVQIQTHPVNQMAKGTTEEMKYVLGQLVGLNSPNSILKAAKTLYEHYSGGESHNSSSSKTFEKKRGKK

Row | SMILES | IC50 [nM]
1 | O=C(Cc1ccc(F)cc1)Nc1ccc(-c2ccc3nc(Nc4ccc(C(=O)N5CC6(COC6)C5)cc4OCCF)nn3c2)cc1 [Example 02.30, N-[4-(2-{[2-(2-fluoroethoxy)-4-(2-oxa-6-azaspiro[3.3]hept-6-ylcarbonyl)phenyl]amino}[,2]triazolo[1,5-a]pyridin-6-yl)phenyl]-2-(4-fluorophenyl)acetamide] | ≤ 1
2 | O=C(Cc1ccc(F)cc1)Nc1ccc(-c2ccc3nc(Nc4ccc(C(=O)N5CCOCC5)cc4OCC(F)F)nn3c2)cc1 [Example 02.31, N-[4-(2-{[2-(2,2-difluoroethoxy)-4-(morpholin-4-ylcarbonyl)phenyl]amino}[,2]-triazolo[1,5-a]pyridin-6-yl)phenyl]-2-(4-fluorophenyl)acetamide] | ≤ 1
3 | O=C(Cc1ccc(F)cc1)Nc1ccc(-c2ccc3nc(Nc4ccc(C(=O)N5CCOCC5)cc4C(F)(F)F)nn3c2)cc1 [Example 02.32, 2-(4-fluorophenyl)-N-[4-(2-{[4-(morpholin-4-ylcarbonyl)-2-(trifluoromethyl)phenyl]amino}[,2]-triazolo[1,5-a]pyridin-6-yl)phenyl]acetamide] | ≤ 1
4 | COc1cc(CN2CCOCC2)ccc1Nc1nc2ccc(-c3ccc(NC(=O)Cc4ccc(F)cc4)cc3)cn2n1 [Example 02.33, 2-(4-fluorophenyl)-N-[4-(2-{[2-methoxy-4-(morpholin-4-ylmethyl)phenyl]amino}[,2]-triazolo[1,5-a]pyridin-6-yl)phenyl]acetamide] | ≤ 1
5 | CCOc1cc(OC2CCN(C)CC2)ccc1Nc1nc2ccc(-c3ccc(NC(=O)Cc4ccc(F)cc4)cc3)cn2n1 [Example 02.34, N-{4-[2-({2-ethoxy-4-[(1-methylpiperidin-4-yl)oxy]phenyl}amino)[,2]triazolo[1,5-a]pyridin-6-yl]phenyl}-2-(4-fluorophenyl)acetamide] | ≤ 1
6 | COc1cc(OC2CCN(C)CC2)ccc1Nc1nc2ccc(-c3ccc(NC(=O)Cc4ccc(F)cc4)cc3)cn2n1 [Example 02.35, 2-(4-fluorophenyl)-N-{4-[2-({2-methoxy-4-[(1-methylpiperidin-4-yl)oxy]phenyl}amino)[,2]triazolo[1,5-a]pyridin-6-yl]phenyl}acetamide] | ≤ 1
7 | CSc1cc(OC2CCN(C)CC2)ccc1Nc1nc2ccc(-c3ccc(NC(=O)Cc4ccc(F)cc4)cc3)cn2n1 [Example 02.36, 2-(4-fluorophenyl)-N-{4-[2-({4-[(1-methylpiperidin-4-yl)oxy]-2-(methylsulfanyl)phenyl}amino)[,2]triazolo[1,5-a]pyridin-6-yl]phenyl}acetamide] | ≤ 1
8 | COc1cc(S(=O)(=O)N2CCOCC2)ccc1Nc1nc2ccc(-c3ccc(NC(=O)Cc4ccc(F)cc4)cc3)cn2n1 [Example 02.37, 2-(4-fluorophenyl)-N-[4-(2-{[2-methoxy-4-(morpholin-4-ylsulfonyl)phenyl]amino}[,2]-triazolo[1,5-a]pyridin-6-yl)phenyl]acetamide] | ≤ 1
9 | Cc1cc(C(=O)N2CC3(COC3)C2)ccc1Nc1nc2ccc(-c3ccc(NC(=O)Cc4ccc(F)cc4)cc3)cn2n1 [Example 02.38, 2-(4-fluorophenyl)-N-[4-(2-{[2-methyl-4-(2-oxa-6-azaspiro[3.3]hept-6-ylcarbonyl)phenyl]amino}[,2]triazolo[1,5-a]pyridin-6-yl)phenyl]acetamide] | ≤ 1
10 | Cc1cc(C(=O)N2CCOCC2)ccc1Nc1nc2ccc(-c3ccc(NC(=O)Cc4ccc(F)cc4)cc3)cn2n1 [Example 02.39, 2-(4-fluorophenyl)-N-[4-(2-{[2-methyl-4-(morpholin-4-ylcarbonyl)phenyl]amino}[,2]-triazolo[1,5-a]pyridin-6-yl)phenyl]acetamide] | ≤ 1
11 | O=C(Cc1ccc(F)cc1)Nc1ccc(-c2ccc3nc(Nc4ccc(C(=O)N5CC6(COC6)C5)cc4OC(F)(F)F)nn3c2)cc1 [Example 02.40, 2-(4-fluorophenyl)-N-[4-(2-{[4-(2-oxa-6-azaspiro[3.3]hept-6-ylcarbonyl)-2-(trifluoromethoxy)phenyl]amino}[,2]triazolo[1,5-a]pyridin-6-yl)phenyl]acetamide] | ≤ 1
12 | COc1ccc(C(=O)N2CCOCC2)cc1Nc1nc2ccc(-c3ccc(NC(=O)Cc4ccc(F)cc4)cc3)cn2n1 [Example 02.41, 2-(4-fluorophenyl)-N-[4-(2-{[2-methoxy-5-(morpholin-4-ylcarbonyl)phenyl]amino}[,2]-triazolo[1,5-a]pyridin-6-yl)phenyl]acetamide] | ≤ 1
13 | Cc1nc(N2CCOCC2)ccc1Nc1nc2ccc(-c3ccc(NC(=O)Cc4ccc(F)cc4)cc3)cn2n1 [Example 02.42, 2-(4-fluorophenyl)-N-[4-(2-{[2-methyl-6-(morpholin-4-yl)pyridin-3-yl]amino}[,2]-triazolo[1,5-a]pyridin-6-yl)phenyl]acetamide] | ≤ 1
14 | Cc1nc(N2CCCC2)ccc1Nc1nc2ccc(-c3ccc(NC(=O)Cc4ccc(F)cc4)cc3)cn2n1 [Example 02.43, 2-(4-fluorophenyl)-N-[4-(2-{[2-methyl-6-(pyrrolidin-1-yl)pyridin-3-yl]amino}[,2]-triazolo[1,5-a]pyridin-6-yl)phenyl]acetamide] | ≤ 1
15 | COc1cc(C(=O)N2CCOCC2)ccc1Nc1nc2ccc(-c3ccc(C(=O)NCC4CC4)cc3)cn2n1 [Example 03.01, N-(cyclopropylmethyl)-4-(2-{[2-methoxy-4-(morpholin-4-ylcarbonyl)phenyl]amino}[,2]-triazolo[1,5-a]pyridin-6-yl)benzamide] | 2.71
16 | CCOc1cc(C(=O)N2CCOCC2)ccc1Nc1nc2ccc(-c3ccc(C(=O)NCC4CC4)cc3)cn2n1 [Example 03.02, N-(cyclopropylmethyl)-4-(2-{[2-ethoxy-4-(morpholin-4-ylcarbonyl)phenyl]amino}[,2]-triazolo[1,5-a]pyridin-6-yl)benzamide] | ≤ 1
17 | COc1cc(C2=NC(C)(C)CO2)ccc1Nc1nc2ccc(-c3ccc(C(=O)NCC4CC4)cc3)cn2n1 [Example 03.03, N-(cyclopropylmethyl)-4-(2-{[4-(4,4-dimethyl-4,5-dihydro-1,3-oxazol-2-yl)-2-methoxyphenyl]amino}[,2]-triazolo[1,5-a]pyridin-6-yl)benzamide] | 5.51
18 | CCOc1cc(C(=O)NC2CCN(C)CC2)ccc1Nc1nc2ccc(-c3ccc(C(=O)NCC4CC4)cc3)cn2n1 [Example 03.04, 4-[(6-{4-[(cyclopropylmethyl)carbamoyl]phenyl}[,2]triazolo[1,5-a]pyridin-2-yl)amino]-3-ethoxy-N-(1-methylpiperidin-4-yl)benzamide] | ≤ 1
19 | COc1cc(N2CCN(C)CC2)ccc1Nc1nc2ccc(-c3ccc(C(=O)NCC4CC4)cc3)cn2n1 [Example 03.05, N-(cyclopropylmethyl)-4-(2-{[2-methoxy-4-(4-methylpiperazin-1-yl)phenyl]amino}[,2]-triazolo[1,5-a]pyridin-6-yl)benzamide trifluoroacetate] | 6.33
20 | O=C(NCC1CC1)c1ccc(-c2ccc3nc(Nc4ccc(C(=O)N5CCOCC5)cc4OCC(F)(F)F)nn3c2)cc1 [Example 03.06, N-(cyclopropylmethyl)-4-(2-{[4-(morpholin-4-ylcarbonyl)-2-(2,2,2-trifluoroethoxy)phenyl]amino}[,2]-triazolo[1,5-a]pyridin-6-yl)benzamide] | ≤ 1
